The structures appear in SMILES notation.

For 1 compound, EC50 results are on record in PMC3130079 (2011).

In the assay the target is TRPA1 (Mus musculus, UniProt Q8BLA8). As to the kind of experiment: Ca2+ imaging and whole-cell patch clamp in TRPA1-transfected CHO cells. It counts as cell-based. For orientation: In patch-clamp work, channel activity is measured electrically.
Sequence of TRPA1 (Q8BLA8 whole entry): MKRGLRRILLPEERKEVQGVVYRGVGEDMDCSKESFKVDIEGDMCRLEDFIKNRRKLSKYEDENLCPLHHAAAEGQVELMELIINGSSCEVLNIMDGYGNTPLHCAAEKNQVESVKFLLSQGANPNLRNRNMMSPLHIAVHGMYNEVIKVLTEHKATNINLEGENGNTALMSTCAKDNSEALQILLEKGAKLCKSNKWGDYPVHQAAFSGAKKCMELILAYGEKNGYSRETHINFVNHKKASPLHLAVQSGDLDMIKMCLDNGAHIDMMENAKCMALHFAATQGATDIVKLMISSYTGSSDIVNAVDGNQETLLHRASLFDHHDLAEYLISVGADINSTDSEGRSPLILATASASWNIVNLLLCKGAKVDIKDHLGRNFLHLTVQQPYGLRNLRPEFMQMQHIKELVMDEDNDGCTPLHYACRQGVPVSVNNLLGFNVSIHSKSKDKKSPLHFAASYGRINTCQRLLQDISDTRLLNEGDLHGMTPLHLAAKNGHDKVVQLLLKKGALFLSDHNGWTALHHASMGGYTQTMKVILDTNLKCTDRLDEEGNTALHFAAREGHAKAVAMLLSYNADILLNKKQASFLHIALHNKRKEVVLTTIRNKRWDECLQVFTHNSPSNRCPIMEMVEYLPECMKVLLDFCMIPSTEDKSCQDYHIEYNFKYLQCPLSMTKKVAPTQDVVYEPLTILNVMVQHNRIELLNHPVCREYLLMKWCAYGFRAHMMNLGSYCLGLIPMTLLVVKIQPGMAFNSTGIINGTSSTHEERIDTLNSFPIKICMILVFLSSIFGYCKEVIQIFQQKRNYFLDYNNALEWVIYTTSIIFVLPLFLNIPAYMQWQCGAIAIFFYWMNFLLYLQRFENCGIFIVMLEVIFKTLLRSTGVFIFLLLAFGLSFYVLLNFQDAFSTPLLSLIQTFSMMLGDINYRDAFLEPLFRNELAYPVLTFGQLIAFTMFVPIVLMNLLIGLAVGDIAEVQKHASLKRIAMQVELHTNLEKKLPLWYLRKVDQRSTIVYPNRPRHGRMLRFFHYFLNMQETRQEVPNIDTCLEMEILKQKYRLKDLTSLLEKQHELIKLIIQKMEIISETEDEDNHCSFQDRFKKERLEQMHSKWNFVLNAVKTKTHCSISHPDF

Regarding `COc1ccc(C(=O)c2c(C)n(CCN3CCOCC3)c3cc(I)ccc23)cc1` [AM630], the half-maximal effective concentration (EC50) came to 2000 nM.

Usually EC50 stands for the concentration at which the effect is half-maximal.
